Measurements from ChEMBL document CHEMBL1201862, “PubChem BioAssay data set” (2004).
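Interpolation was linear, between the two tested concentrations surrounding the appropriate level; five concentrations were tested over 48 hours in 96-well plates. At the GI50, growth is halved.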 Activity calls are given as the source filed them. Rule as the data show it: active = GI50 up to about 1.1 µM and inactive = higher.

Legend:
Assay in all cases: NCI tumour cell line growth inhibition, 48 h
786-0 = tested on: 786-0
COLO 205 = tested on: COLO 205
HL-60 = tested on: HL-60
K562 = tested on: K562
KM12 = tested on: KM12
LOX IMVI = tested on: LOX IMVI
MOLT-4 = tested on: MOLT-4
Malme-3M = tested on: Malme-3M
NCI-H460 = tested on: NCI-H460
NCI-H522 = tested on: NCI-H522
RXF 393 = tested on: RXF 393
SK-MEL-28 = tested on: SK-MEL-28
SK-MEL-5 = tested on: SK-MEL-5
SNB-75 = tested on: SNB-75
UACC-257 = tested on: UACC-257
HCC 2998 = tested on: HCC 2998
SR = tested on: SR

Row | Structure (SMILES) | GI50 (786-0) | GI50 (COLO 205) | GI50 (HL-60) | GI50 (K562) | GI50 (KM12) | GI50 (LOX IMVI) | GI50 (MOLT-4) | GI50 (Malme-3M) | GI50 (NCI-H460) | GI50 (NCI-H522) | GI50 (RXF 393) | GI50 (SK-MEL-28) | GI50 (SK-MEL-5) | GI50 (SNB-75) | GI50 (UACC-257) | GI50 (HCC 2998) | GI50 (SR)
1 | C=CCN(N=O)C(=O)N(CCC)CCCCC(NC(C)=O)C(=O)NCc1ccccc1 (stereo not drawn) | > 100 µM (inactive) | > 100 µM (inactive) | 21 µM (inactive) | 51.6 µM (inactive) | 59.4 µM (inactive) | 67.1 µM (inactive) | 22.5 µM (inactive) | > 100 µM (inactive) | > 100 µM (inactive) | 73.6 µM (inactive) | 38.1 µM (inactive) | > 100 µM (inactive) | 67.9 µM (inactive) | 71.8 µM (inactive) | > 100 µM (inactive) | – | –
2 | COc1cc2c(c(OC)c1OC)-c1ccc(SC)c(=O)cc1C(CC(=O)Oc1cccc(C#N)c1)C2 (stereo not drawn) | 0.475 µM (active) | 0.336 µM (active) | 0.254 µM (active) | 0.181 µM (active) | 0.292 µM (active) | 0.484 µM (active) | 0.536 µM (active) | 0.175 µM (active) | 0.365 µM (active) | 0.187 µM (active) | 0.167 µM (active) | 0.724 µM (active) | 0.313 µM (active) | 0.291 µM (active) | 0.516 µM (active) | 0.254 µM (active) | 0.134 µM (active)
3 | CC(=O)Nc1ccc(C(=O)NN2C(=O)C(Cl)C2c2ccc(O)cc2)cc1 (stereo not drawn) | 72.4 µM (inactive) | > 100 µM (inactive) | > 100 µM (inactive) | > 100 µM (inactive) | – | > 100 µM (inactive) | > 100 µM (inactive) | > 100 µM (inactive) | > 100 µM (inactive) | > 100 µM (inactive) | 61.7 µM (inactive) | > 100 µM (inactive) | > 100 µM (inactive) | > 100 µM (inactive) | > 100 µM (inactive) | – | –
4 | CCc1cc(Cc2ccc(C)c(NC(=O)C(=O)C3C(=O)NC(=O)NC3=O)c2CC)cc(C)c1NC(=O)C(=O)C1C(=O)NC(=O)NC1=O | > 100 µM (inactive) | > 100 µM (inactive) | > 100 µM (inactive) | > 100 µM (inactive) | > 100 µM (inactive) | > 100 µM (inactive) | 93.5 µM (inactive) | > 100 µM (inactive) | > 100 µM (inactive) | > 100 µM (inactive) | > 100 µM (inactive) | > 100 µM (inactive) | > 100 µM (inactive) | 24.6 µM (inactive) | > 100 µM (inactive) | > 100 µM (inactive) | –
5 | Cc1c(C(=O)CSc2nc3ccccc3[nH]2)c(=O)n(-c2ccccc2)n1C | > 100 µM (inactive) | > 100 µM (inactive) | > 100 µM (inactive) | – | > 100 µM (inactive) | > 100 µM (inactive) | > 100 µM (inactive) | 34.9 µM (inactive) | > 100 µM (inactive) | > 100 µM (inactive) | – | > 100 µM (inactive) | > 100 µM (inactive) | > 100 µM (inactive) | > 100 µM (inactive) | > 100 µM (inactive) | > 100 µM (inactive)
6 | CC1=CC(=O)NP(=O)(C23CC4CC(CC(C4)C2)C3)N1 (stereo not drawn) | > 100 µM (inactive) | > 100 µM (inactive) | > 100 µM (inactive) | > 100 µM (inactive) | > 100 µM (inactive) | > 100 µM (inactive) | > 100 µM (inactive) | > 100 µM (inactive) | > 100 µM (inactive) | > 100 µM (inactive) | – | > 100 µM (inactive) | > 100 µM (inactive) | > 100 µM (inactive) | > 100 µM (inactive) | – | > 100 µM (inactive)
7 | CC(=O)Nc1ccccc1-c1cnc2ccccc2n1 | > 100 µM (inactive) | > 100 µM (inactive) | > 100 µM (inactive) | > 100 µM (inactive) | > 100 µM (inactive) | > 100 µM (inactive) | > 100 µM (inactive) | > 100 µM (inactive) | > 100 µM (inactive) | > 100 µM (inactive) | – | > 100 µM (inactive) | > 100 µM (inactive) | > 100 µM (inactive) | > 100 µM (inactive) | > 100 µM (inactive) | > 100 µM (inactive)
8 | Cc1cc(NS(=O)(=O)c2ccc(NC(=O)c3ccc(Cl)c4c(Nc5ccc(S(N)(=O)=O)cc5)c5ccccc5nc34)cc2)no1 | 18.3 µM (inactive) | 18.7 µM (inactive) | 13.3 µM (inactive) | 26.9 µM (inactive) | 19.6 µM (inactive) | 14.6 µM (inactive) | 22.5 µM (inactive) | 15.5 µM (inactive) | 25.8 µM (inactive) | 11 µM (inactive) | 16.8 µM (inactive) | 20.3 µM (inactive) | 18.2 µM (inactive) | 20.3 µM (inactive) | 24 µM (inactive) | 18.7 µM (inactive) | 20.4 µM (inactive)
9 | O=C1OC(O)C(Oc2c(Cl)cccc2Cl)=C1Cl (stereo not drawn) | 17.1 µM (inactive) | 16.5 µM (inactive) | 20 µM (inactive) | 17.3 µM (inactive) | 22.3 µM (inactive) | 17.9 µM (inactive) | 21.8 µM (inactive) | 26.5 µM (inactive) | 15.5 µM (inactive) | 12.5 µM (inactive) | 11.3 µM (inactive) | 20.2 µM (inactive) | 14.2 µM (inactive) | 25.6 µM (inactive) | 19.5 µM (inactive) | 23.3 µM (inactive) | 21.7 µM (inactive)
10 | Cn1c(=O)c2nc(N3CCOCC3)cnc2n(C)c1=O | – | > 100 µM (inactive) | > 100 µM (inactive) | > 100 µM (inactive) | > 100 µM (inactive) | – | > 100 µM (inactive) | > 100 µM (inactive) | > 100 µM (inactive) | > 100 µM (inactive) | – | > 100 µM (inactive) | > 100 µM (inactive) | > 100 µM (inactive) | > 100 µM (inactive) | > 100 µM (inactive) | > 100 µM (inactive)
11 | CCCCP1(=O)C=CC(Cl)=C(C)C1 (stereo not drawn) | > 100 µM (inactive) | > 100 µM (inactive) | > 100 µM (inactive) | > 100 µM (inactive) | > 100 µM (inactive) | – | > 100 µM (inactive) | > 100 µM (inactive) | > 100 µM (inactive) | > 100 µM (inactive) | > 100 µM (inactive) | > 100 µM (inactive) | > 100 µM (inactive) | – | > 100 µM (inactive) | > 100 µM (inactive) | –
12 | N#CC1=C(N)N2C(=O)/C(=C/c3ccccc3)SC2C(c2nc3ccccc3[nH]2)=C1c1ccccc1 (stereo not drawn) | 2.72 µM (inactive) | 5.98 µM (inactive) | 2.31 µM (inactive) | 5.32 µM (inactive) | 3.55 µM (inactive) | 1.73 µM (inactive) | 2.4 µM (inactive) | 1.75 µM (inactive) | 3.09 µM (inactive) | 1.86 µM (inactive) | – | 3.12 µM (inactive) | 1.83 µM (inactive) | 1.74 µM (inactive) | 4.55 µM (inactive) | 1.57 µM (inactive) | 1.91 µM (inactive)
13 | CC(NCCS(=O)(=O)O)C(=O)O (stereo not drawn) | – | > 100 µM (inactive) | > 100 µM (inactive) | > 100 µM (inactive) | > 100 µM (inactive) | > 100 µM (inactive) | > 100 µM (inactive) | > 100 µM (inactive) | > 100 µM (inactive) | > 100 µM (inactive) | > 100 µM (inactive) | > 100 µM (inactive) | > 100 µM (inactive) | > 100 µM (inactive) | > 100 µM (inactive) | > 100 µM (inactive) | –
14 | COc1ccc2nc(NC(=O)C(=O)C(C(=O)c3ccccc3-c3ccccc3)C3OC(=O)c4ccccc43)sc2c1 (stereo not drawn) | 15.6 µM (inactive) | 20.5 µM (inactive) | 16 µM (inactive) | 30.2 µM (inactive) | 21.6 µM (inactive) | 17 µM (inactive) | 19.5 µM (inactive) | 12.1 µM (inactive) | 21.7 µM (inactive) | 9.89 µM (inactive) | 10.2 µM (inactive) | 20.5 µM (inactive) | 16.2 µM (inactive) | 16.1 µM (inactive) | 22.4 µM (inactive) | 15.4 µM (inactive) | –
15 | Cc1c(/C=N/NC(=O)c2ccccc2)c(=O)n(-c2ccccc2)n1C | > 100 µM (inactive) | > 100 µM (inactive) | > 100 µM (inactive) | > 100 µM (inactive) | > 100 µM (inactive) | > 100 µM (inactive) | > 100 µM (inactive) | > 100 µM (inactive) | > 100 µM (inactive) | > 100 µM (inactive) | > 100 µM (inactive) | > 100 µM (inactive) | – | > 100 µM (inactive) | > 100 µM (inactive) | > 100 µM (inactive) | > 100 µM (inactive)
16 | CCCCN(CCCC)/C(=N\C#N)NCc1ccccc1 | 19 µM (inactive) | 16.4 µM (inactive) | 10.5 µM (inactive) | 7.43 µM (inactive) | 21.3 µM (inactive) | 16.5 µM (inactive) | – | 32.4 µM (inactive) | 13.9 µM (inactive) | 3.95 µM (inactive) | 22.5 µM (inactive) | – | 21.9 µM (inactive) | 28.1 µM (inactive) | 27.4 µM (inactive) | 15.5 µM (inactive) | –
17 | CCOC(=O)CNC1C(NC(C)=O)C(OC)OC2COC(c3ccccc3)OC21 (stereo not drawn) | > 100 µM (inactive) | > 100 µM (inactive) | > 100 µM (inactive) | > 100 µM (inactive) | > 100 µM (inactive) | > 100 µM (inactive) | > 10 µM (inactive) | > 100 µM (inactive) | > 100 µM (inactive) | > 100 µM (inactive) | > 100 µM (inactive) | > 100 µM (inactive) | > 100 µM (inactive) | > 100 µM (inactive) | > 100 µM (inactive) | > 100 µM (inactive) | –
